Assay results taken from paper PMC8553829, “Improvement of a synthetic live bacterial therapeutic for phenylketonuria with biosensor-enabled enzyme engineering” (Nature Communications, 2021).

Target: T1, StlA (PAL, phenylalanine ammonia lyase) (Photorhabdus laumondii, UniProt Q7N4T3)
T1 construct: gene plu2234; full-length, untagged; aTc-inducible low-copy plasmid in E. coli Nissle 1917; soluble cell lysate
T1 sequence (Q7N4T3 1-532): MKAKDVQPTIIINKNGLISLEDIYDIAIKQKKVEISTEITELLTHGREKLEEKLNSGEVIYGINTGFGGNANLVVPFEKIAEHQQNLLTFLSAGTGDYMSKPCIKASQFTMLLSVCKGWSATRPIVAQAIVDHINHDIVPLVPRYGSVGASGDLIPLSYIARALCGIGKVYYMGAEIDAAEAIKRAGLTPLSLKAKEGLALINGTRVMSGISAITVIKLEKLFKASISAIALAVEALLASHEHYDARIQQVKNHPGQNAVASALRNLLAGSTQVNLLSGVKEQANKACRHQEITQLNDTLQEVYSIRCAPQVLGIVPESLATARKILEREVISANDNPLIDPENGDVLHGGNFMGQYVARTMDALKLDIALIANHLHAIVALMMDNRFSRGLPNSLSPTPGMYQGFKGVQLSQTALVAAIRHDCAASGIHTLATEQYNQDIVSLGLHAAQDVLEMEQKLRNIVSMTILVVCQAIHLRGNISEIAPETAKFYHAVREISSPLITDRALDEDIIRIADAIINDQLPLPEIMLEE
Test: TCA formation followed at A290, nonlinear Michaelis-Menten fit
Type: biochemical
Conditions: soluble lysate of E. coli Nissle (EP2315), 10 µg total protein per well; M9 0.5% glucose, 37 °C
Text: TCA formation followed at A290, nonlinear Michaelis-Menten fit on StlA (PAL, phenylalanine ammonia lyase)

N[C@@H](Cc1ccccc1)C(=O)O [Phe]
KM (mM Phe): 1.69 ± 0.37 mM
